Reference: patent EP1900728A1 (Genecare Research Institute Co., Ltd, priority 2005, dated 2006)
Where two headings read alike, the source gives them in different places.

How the values were obtained:
[1] = test system: ICAM-1 expression in HT-29 cells; assay: Measurement of ICAM-1 expressing activity (TNFα-induced ICAM-1 expression, cell ELISA); type: cell-based; conditions: Homo sapiens, Table 6, cell activity inhibition test by method (3), read-out: EVALUATION (IC50 class, inhibition of cell activity)
Experimental: Method 2: Measurement of ICAM-1 expressing activity
2.0 x 10^4 HT-29 cells (ATCC) were plated onto a 96-well plate, and the cells were cultured for 48 hours using a McCoy' 5A medium (GIBCO) containing 10% inactivated fetal calf serum. The culture medium was removed, a culture medium containing a compound to be evaluated (final DMSO concentration of 0.5%) was added, and this was incubated at 37°C for 30 minutes. Thirty ng/mL of human TNFα (GIBCO) was added, and this was incubated at 37°C for 4 hours. After washing once with a washing solution (PBS containing 0.05% Tween 20), ice-cooled methanol was added, and this was left on ice for 10 minutes and then fixed. After removing methanol, PBS containing 1% BSA was added, and blocking was performed by letting this stand at room temperature for 30 minutes. Anti-ICAM-1 antibody (Santa Cruz Biotechnology) was added, and this was left to stand at room temperature for 1 hour. After washing with the washing solution, POD-labeled secondary antibody was added, and this was left to stand at room temperature for 30 minutes. This was washed, 100 µL of 100 mM citric acid buffer (pH4.2) containing 1 mM TMBZ and 0.03% H2O2 was added, and this was reacted at room temperature for 15 minutes. The reaction was terminated with 100 µL of 2 N H2SO4, and the absorbance at 450 nm was measured using ARVO-HTS (Perkin Elmer).
When cells are stimulated with TNFα, IκBα is degraded after ubiquitination resulting in the activation of NFκB and the promotion of the expression of adhesion factor ICAM-1. Therefore, the suppression of ICAM-1 expression described above serves as an indicator to determine the effectiveness of the compound in the cells.

[2] = target: T1, IκBα ubiquitinating enzyme (SCF complex: ROC1, Cullin1, Skp1, His-TrCP1; with E1, UbcH5b) (Homo sapiens, UniProt P62877+P63208+Q13616+Q9Y297); assay: Measurement of ubiquitinating enzyme activity (IκBα ubiquitination, time-resolved fluorescence with Eu(K)-labeled ubiquitin and XL665-labeled anti-GST antibody); type: biochemical
T1 construct: His (polyhistidine); made in house; host or cells: insect cells (baculovirus) for the SCF complex and His-E1; E. coli for His-UBCH5b
T1 sequence (Q9Y297 whole entry): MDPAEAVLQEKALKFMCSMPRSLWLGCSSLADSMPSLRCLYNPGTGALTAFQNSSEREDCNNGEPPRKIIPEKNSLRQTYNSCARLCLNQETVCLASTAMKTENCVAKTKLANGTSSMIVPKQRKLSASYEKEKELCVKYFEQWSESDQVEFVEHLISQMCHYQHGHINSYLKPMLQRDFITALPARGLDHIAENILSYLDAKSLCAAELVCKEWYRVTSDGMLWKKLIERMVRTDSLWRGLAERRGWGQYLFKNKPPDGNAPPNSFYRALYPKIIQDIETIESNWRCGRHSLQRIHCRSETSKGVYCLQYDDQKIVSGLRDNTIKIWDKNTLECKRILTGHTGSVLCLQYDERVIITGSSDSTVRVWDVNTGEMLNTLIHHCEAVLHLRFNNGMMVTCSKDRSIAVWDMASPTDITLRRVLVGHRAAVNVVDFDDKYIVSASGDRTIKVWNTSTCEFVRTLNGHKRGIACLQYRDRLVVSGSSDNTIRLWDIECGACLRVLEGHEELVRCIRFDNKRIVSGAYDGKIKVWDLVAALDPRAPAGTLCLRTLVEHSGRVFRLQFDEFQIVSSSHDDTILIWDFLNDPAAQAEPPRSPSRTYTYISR
T1 sequence (Q13616 whole entry): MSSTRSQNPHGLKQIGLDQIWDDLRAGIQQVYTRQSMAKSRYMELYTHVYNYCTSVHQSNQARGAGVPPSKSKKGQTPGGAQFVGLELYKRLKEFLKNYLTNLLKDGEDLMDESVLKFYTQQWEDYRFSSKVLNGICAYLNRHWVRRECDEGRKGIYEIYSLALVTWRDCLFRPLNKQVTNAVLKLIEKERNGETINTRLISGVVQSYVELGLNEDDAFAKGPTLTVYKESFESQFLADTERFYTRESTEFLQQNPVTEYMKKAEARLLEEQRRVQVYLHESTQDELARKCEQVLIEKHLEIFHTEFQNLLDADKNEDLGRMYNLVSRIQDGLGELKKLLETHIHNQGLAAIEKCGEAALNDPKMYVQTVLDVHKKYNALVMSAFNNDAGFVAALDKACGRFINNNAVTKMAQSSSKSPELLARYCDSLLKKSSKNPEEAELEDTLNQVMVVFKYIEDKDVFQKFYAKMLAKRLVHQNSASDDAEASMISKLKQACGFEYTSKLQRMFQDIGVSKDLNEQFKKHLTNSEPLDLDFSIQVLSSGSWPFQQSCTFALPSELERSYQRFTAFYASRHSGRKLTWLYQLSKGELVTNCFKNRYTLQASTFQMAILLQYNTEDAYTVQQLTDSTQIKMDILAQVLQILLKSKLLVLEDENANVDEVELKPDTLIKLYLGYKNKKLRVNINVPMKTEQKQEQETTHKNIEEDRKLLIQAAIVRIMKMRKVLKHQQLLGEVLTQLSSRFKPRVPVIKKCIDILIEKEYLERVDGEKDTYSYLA
T1 sequence (P63208 whole entry): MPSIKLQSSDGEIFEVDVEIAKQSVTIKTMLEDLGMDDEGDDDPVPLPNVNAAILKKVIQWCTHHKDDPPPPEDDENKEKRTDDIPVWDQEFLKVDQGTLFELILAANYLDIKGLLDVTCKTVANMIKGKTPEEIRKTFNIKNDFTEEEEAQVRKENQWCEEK
T1 sequence (P62877 whole entry): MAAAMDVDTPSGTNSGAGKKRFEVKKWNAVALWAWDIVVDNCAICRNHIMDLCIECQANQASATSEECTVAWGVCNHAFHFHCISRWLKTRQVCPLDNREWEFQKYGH
Outline: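 Human SCF complex with E1 and UbcH5b ubiquitinated GST-IκBα pre-phosphorylated by IKKβ (2 mM ATP, pH 7.4, 1 h, RT), with Eu(K)-ubiquitin, 30 min RT. Stopped with EDTA, XL665 anti-GST added for 2 h; 665/620 nm TR-FRET ratio. % inhibition versus no-compound control and no-SCF blank gave IC50.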

[3] = enzyme activity inhibition test, method (1), Table 5, read-out: EVALUATION

Compound	IC50 [1] [µM]	IC50 [2, 3] [µM]	IC50 [2] [µM]	IC50 ([2]; read-out: EVALUATION, enzyme activity inhibition test, method (1), Table 5) [µM]
COCC1=NN(c2ccccc2)C(=O)/C1=C\c1ccc(-c2ccccc2F)o1 [Compound 6]	< 40	10 to 20	–	–
COC(=O)N1CCN(c2ccc(/C=C3\C(=O)N(c4ccccc4)N=C3c3ccoc3)cc2)CC1 [Compound 14]	< 40	< 10	–	–
O=C1/C(=C\c2ccc(CO)o2)C(c2ccoc2)=NN1c1ccccc1 [Compound 16]	10 to 20	< 10	–	–
COc1cc(/C=C2\C(=O)N(c3ccccc3)N=C2Cc2ccccc2)ccc1OCc1ccccc1 [Compound 24]	< 40	10 to 20	–	–
COC(=O)N1CCN(c2ccc(C=C3C(=O)N(c4ccccc4)N=C3Cc3ccccc3)cc2)CC1 [Compound 25]	< 40	–	10 to 20	–
O=C1/C(=C\c2ccc(CO)o2)C(Cc2ccccc2)=NN1c1ccccc1 [Compound 27]	10 to 20	< 10	–	–
O=C1/C(=C\c2ccc3c(c2)OCCO3)C(Cc2ccccc2)=NN1c1ccccc1 [Compound 29]	10 to 20	10 to 20	–	–
COC(=O)N1CCN(c2ccc(C=C3C(=O)N(c4ccccc4)N=C3c3ccc(OC)c(OC)c3)cc2)CC1 [Compound 33]	< 40	–	10 to 20	–
COc1ccc(C2=NN(c3ccccc3)C(=O)/C2=C\c2ccc3c(c2)OCCO3)cc1OC [Compound 37]	< 40	10 to 20	–	–
CCCCC1=NN(c2ccccc2)C(=O)/C1=C\c1ccc(N2CCN(C(=O)OC)CC2)cc1 [Compound 54]	< 40	10 to 20	–	–
CCCCC1=NN(c2ccccc2)C(=O)/C1=C\c1ccc(CO)o1 [Compound 56]	10 to 20	10 to 20	–	–
CCCCC1=NN(c2ccccc2)C(=O)C1=Cc1ccc(-n2cccn2)cc1 [Compound 58]	< 40	–	< 10	–
COc1cc(/C=C2\C(=O)N(c3ccccc3)N=C2C2CC2)ccc1O [Compound 69]	10 to 20	10 to 20	–	–
COC(=O)N1CCN(c2ccc(C=C3C(=O)N(c4ccccc4)N=C3C3CC3)cc2)CC1 [Compound 73]	< 40	–	10 to 20	–
O=C1/C(=C\c2ccc3c(c2)OCCO3)C(C2CC2)=NN1c1ccccc1 [Compound 77]	< 40	< 10	–	–
CC1=NN(c2ccc(S(N)(=O)=O)cc2)C(=O)/C1=C\c1ccc2c(c1)OCCO2 [Compound 108]	< 40	10 to 20	–	–
CC1=NN(c2ccc(S(N)(=O)=O)cc2)C(=O)/C1=C\c1ccc(C(C)(C)C)cc1 [Compound 115]	10 to 20	< 10	–	–
CC1=NN(c2ccc(S(N)(=O)=O)cc2)C(=O)/C1=C\c1ccc(F)cc1 [Compound 118]	10 to 20	10 to 20	–	–
CC1=NN(c2ccc(S(N)(=O)=O)cc2)C(=O)C1=Cc1cccc2ccccc12 [Compound 119]	< 10	–	10 to 20	–
COC(=O)c1ccc(COc2ccc(/C=C3\C(=O)N(c4ccc(S(N)(=O)=O)cc4)N=C3C)cc2OC)cc1 [Compound 120]	< 40	< 10	–	–
COc1cc(/C=C2\C(=O)N(c3ccc(S(N)(=O)=O)cc3)N=C2C)ccc1OCC(=O)OC(C)(C)C [Compound 121]	10 to 20	10 to 20	–	–
CC1=NN(c2ccc(S(N)(=O)=O)cc2)C(=O)/C1=C\c1ccc(N2CCCCC2)cc1 [Compound 126]	10 to 20	10 to 20	–	–
COc1cc(/C=C2\C(=O)N(Cc3cccc(O)c3)N=C2C)ccc1O [Compound 128]	< 10	10 to 20	–	–
COc1cc(/C=C2\C(=O)N(c3ccccn3)N=C2C)ccc1O [Compound 129]	< 10	< 40	–	–
CCOC(=O)c1ccc(COc2ccc(/C=C3\C(=O)N(c4ccc(S(N)(=O)=O)cc4)N=C3C)cc2OC)o1 [Compound 154]	< 10	< 10	–	–
CC1=NN(c2ccc(S(N)(=O)=O)cc2)C(=O)/C1=C\c1cc2ccccc2o1 [Compound 168]	10 to 20	< 10	–	–
CC1=NN(c2ccc(S(N)(=O)=O)cc2)C(=O)C1=Cc1ccc(N2CCN(C(=O)OC(C)(C)C)CC2)cc1 [Compound 179]	< 40	–	10 to 20	–
CC1=NN(c2cccc(C(=O)O)c2)C(=O)C1=Cc1ccc(-c2cnn(C)c2)o1 [Compound 495]	–	–	–	10 to 20
CC1=NN(c2ccc(C(=O)O)cc2)C(=O)/C1=C\c1c(C)nn(C)c1Cl [Compound 514]	–	< 40	–	–
CC(=O)OCc1ccc(/C=C2\C(=O)N(c3ccc(C(=O)O)cc3)N=C2C)o1 [Compound 524]	–	< 40	–	–

Second part, led by results:

IC50 [1] [µM]	IC50 [2, 3] [µM]	Compound	IC50 [2] [µM]	IC50 ([2]; read-out: EVALUATION, enzyme activity inhibition test, method (1), Table 5) [µM]
10 to 20	10 to 20	COCC1=NN(c2ccccc2)C(=O)/C1=C\c1ccc2ccccc2c1 [Compound 2]	–	–
< 40	< 10	COc1cc(/C=C2\C(=O)N(c3ccccc3)N=C2c2ccoc2)ccc1O [Compound 11]	–	–
< 40	< 10	O=C1/C(=C\c2ccc3ccccc3c2)C(c2ccoc2)=NN1c1ccccc1 [Compound 12]	–	–
< 40	< 10	CC1=NN(c2ccccc2)C(=O)/C1=C\c1ccc(-c2ccccc2F)o1 [Compound 19]	–	–
< 40	10 to 20	O=C1/C(=C\c2ccc3ccccc3c2)C(C2CC2)=NN1c1ccccc1 [Compound 70]	–	–
< 40	< 10	COc1cc(/C=C2\C(=O)N(c3ccccc3)N=C2c2ccoc2)ccc1OCc1ccccc1 [Compound 94]	–	–
10 to 20	10 to 20	CC1=NN(c2ccc(S(N)(=O)=O)cc2)C(=O)/C1=C\c1ccc2ccccc2c1 [Compound 116]	–	–
10 to 20	< 10	CC1=NN(c2ccc(S(N)(=O)=O)cc2)C(=O)/C1=C\c1ccc(-c2ccccc2)cc1 [Compound 117]	–	–
< 40	10 to 20	COc1cc(/C=C2\C(=O)N(c3ccccc3)N=C2C)ccc1OCC(=O)OC(C)(C)C [Compound 125]	–	–
< 40	< 10	CC1=NN(c2ccccc2)C(=O)/C1=C\c1ccc2[nH]ccc2c1 [Compound 127]	–	–
< 40	< 10	CC1=NN(c2ccc(S(N)(=O)=O)cc2)C(=O)/C1=C\c1ccc2[nH]ccc2c1 [Compound 133]	–	–
< 40	< 10	CC1=NN(c2cccc(S(N)(=O)=O)c2)C(=O)/C1=C\c1ccc2[nH]ccc2c1 [Compound 134]	–	–
< 40	< 10	CC1=NN(c2ccc(S(N)(=O)=O)cc2)C(=O)/C1=C\c1ccc2cc[nH]c2c1 [Compound 148]	–	–
< 10	< 10	CC1=NN(c2ccc(S(N)(=O)=O)cc2)C(=O)/C1=C\c1ccc(-n2cccn2)cc1 [Compound 150]	–	–
< 10	< 10	CC1=NN(c2cccc(S(N)(=O)=O)c2)C(=O)/C1=C\c1cc2ccccc2o1 [Compound 164]	–	–
–	< 40	COc1ncccc1/C=C1\C(=O)N(c2cccc(C(=O)O)c2)N=C1C [Compound 506]	–	–
–	< 40	CC1=NN(c2cccc(C(=O)O)c2)C(=O)/C1=C\c1cccs1 [Compound 508]	–	–
–	< 40	Cn1cc(-c2ccc(/C=C3\C(=O)N(c4cccc(C(=O)O)c4)N=C3Cc3ccccc3)o2)cn1 [Compound 510]	–	–
–	< 40	CC1=NN(c2ccc(C(=O)O)cc2)C(=O)/C1=C\c1ccsc1 [Compound 511]	–	–
–	< 40	CC1=NN(c2cccc(C(=O)O)c2)C(=O)/C1=C\c1c(C)nn(C)c1Cl [Compound 513]	–	–
–	< 40	CC1=NN(c2cccc(C(=O)O)c2)C(=O)/C1=C\c1ccsc1 [Compound 515]	–	–
–	< 40	CC(=O)OCc1ccc(/C=C2\C(=O)N(c3cccc(C(=O)O)c3)N=C2C)o1 [Compound 516]	–	–
–	< 40	CC1=NN(c2ccc(C(=O)O)cc2)C(=O)/C1=C\c1cccs1 [Compound 517]	–	–
–	10 to 20	CC1=NN(c2cccc(C(=O)O)c2)C(=O)/C1=C\c1ccc(S(=O)(=O)O)o1 [Compound 520]	–	–
–	10 to 20	CC1=NN(c2ccc(C(=O)O)cc2)C(=O)/C1=C\c1ccc(S(=O)(=O)O)o1 [Compound 525]	–	–
–	< 40	COCCC1=NN(c2cccc(C(=O)O)c2)C(=O)/C1=C\c1ccc(-c2ccccc2F)o1 [Compound 526]	–	–
–	< 10	CC1=NN(c2cccc(C(=O)O)c2)C(=O)/C1=C\c1ccc2c(ccn2C(=O)c2ccccc2)c1 [Compound 529]	–	–
–	10 to 20	CCCNC(=O)COc1ccc(/C=C2\C(=O)N(c3ccc(C(=O)O)cc3)N=C2C)cc1 [Compound 534]	–	–
